Assay results from ChEMBL document CHEMBL5036330, “Discovery of 8,9-seco-ent-Kaurane Diterpenoids as Potential Leads for the Treatment of Triple-Negative Breast Cancer” (J Med Chem, 2021).
Active and inactive are the calls of the source. The rule behind the calls is not given here.

Experiments:
MDA-MB-468 [1] = test: Induction of autophagy in human MDA-MB-468 cells assessed as increase in ATG5 expression at 1 to 5 uM incubated for 24 hrs by Western blot analysis; type: functional, cell-based; conditions: dose 1-5 µM
MDA-MB-231 [2] = test: Induction of autophagy in human MDA-MB-231 cells assessed as cleaved PARP at 1 to 5 uM incubated for 24 hrs in presence of chloroquine by Western blot analysis relative to control; type: functional, cell-based; conditions: dose 1-5 µM
[3] = Toxicity in NOD/SCID mouse assessed as cytotoxicity in spleen at 10 mg/kg, ip treated for 33 days by H&E staining analysis; type: organism-based; conditions: in vivo, 792 h, time 33 day
MDA-MB-468 [4] = test: Induction of apoptosis in human MDA-MB-468 cells assessed as early apoptotic cells at 1 uM measured after 24 hrs by Annexin V/Propidium iodide stain based Flow cytometry (reference value: 7.98%); type: functional
MDA-MB-231 [5] = test: Induction of apoptosis in human MDA-MB-231 cells assessed as late apoptotic cells at 5 uM measured after 24 hrs by Annexin V/Propidium iodide stain based Flow cytometry (reference value: 2.78%); type: functional
MDA-MB-468 [6] = test: Anticancer activity in human MDA-MB-468 cells xenografted mouse model assessed as reduction in tumor volume at 10 mg/kg, ip treated for 33 days; type: functional; conditions: MDA-MB-468, ip, 792 h, time 33 day
MDA-MB-231 [7] = test: Cytotoxicity against Akt1-silenced human MBA-MB-231 cells assessed as cell viability measured after 24 hrs; type: functional, cell-based
MDA-MB-468 [8] = test: Induction of apoptosis in human MDA-MB-468 cells assessed as late apoptotic cells at 5 uM measured after 24 hrs by Annexin V/Propidium iodide stain based Flow cytometry (reference value: 3.98%); type: functional
MDA-MB-468 [9] = test: Induction of cell cycle arrest in human MDA-MB-468 cells assessed as accumulation of cells at S phase at 2 uM measured after 24 hrs by flow cytometry (reference value: 46.9%); type: functional
MDA-MB-231 [10] = test: Cytotoxicity against human MDA-MB-231 cells assessed as reduction in cell viability incubated for 96 hrs by MTT method; type: functional, cell-based; conditions: MDA-MB-231, 96 h
MDA-MB-231 [11] = test: Induction of mitochondrial depolarization in human MDA-MB-231 cells assessed as aggregates at 1 uM in dark by JC10 staining based fluorescence microscopy (reference value: 94.4%); type: functional
MDA-MB-231 [12] = test: Antiproliferative activity against human MDA-MB-231 cells assessed as supression of long term proliferative capacity measured after 2 weeks by Colony formation assay; type: functional, cell-based; conditions: dose 0.05-0.2 µM
MDA-MB-231 [13] = test: Effect on PI3K expression in human MDA-MB-231 cells measured at 1 to 5 uM after 24 hrs by Western blot analysis; type: functional, cell-based; conditions: dose 1-5 µM
MDA-MB-231 [14] = test: Induction of mitochondrial depolarization in human MDA-MB-231 cells assessed as monomers at 5 uM in dark by JC10 staining based fluorescence microscopy (reference value: 5.6%); type: functional
MDA-MB-468 [15] = test: Induction of cell cycle arrest in human MDA-MB-468 cells assessed as accumulation of cells at G2 phase at 2 uM measured after 24 hrs by flow cytometry (reference value: 26.5%); type: functional
MDA-MB-468 [16] = test: Antitumor activity against human MDA-MB-468 cells xenografted in NOD/SCID mouse assessed as decrease in Ki67 expression in tumor tissue at 5 to 10 mg/kg, ip treated for 33 days by immunohistochemical analysis; type: functional, organism-based; conditions: dose 5-10 mg/kg, time 33.0 day
MDA-MB-468 [17] = test: Induction of cell cycle arrest in human MDA-MB-468 cells assessed as accumulation of cells at S phase at 5 uM measured after 24 hrs by flow cytometry (reference value: 46.9%); type: functional
MDA-MB-231 [18] = test: Induction of apoptosis in human MDA-MB-231 cells assessed as early apoptotic cells at 2 uM measured after 24 hrs by Annexin V/Propidium iodide stain based Flow cytometry (reference value: 3.34%); type: functional
L02 = test: Cytotoxicity against human L02 cells assessed as reduction in cell viability incubated for 96 hrs by MTT method; type: cell-based; conditions: L02, 96 h
MDA-MB-231 [19] = test: Induction of cell cycle arrest in human MDA-MB-231 cells assessed as accumulation of cells at G2 phase at 2 uM measured after 24 hrs by flow cytometry (reference value: 20.2%); type: functional
MDA-MB-468 [20] = test: Inhibition of Akt phosphorylation in human MDA-MB-468 cells measured after 24 hrs by Western blot analysis; type: cell-based; conditions: dose 1-5 µM
MDA-MB-231 [21] = test: Induction of autophagy in human MDA-MB-231 cells assessed as increase in LC3-II expression at 1 to 5 uM incubated for 24 hrs by Western blot analysis; type: functional, cell-based; conditions: dose 1-5 µM
MDA-MB-468 [22] = test: Induction of mitochondrial depolarization in human MDA-MB-468 cells assessed as monomers at 2 uM in dark by JC10 staining based fluorescence microscopy (reference value: 8.4%); type: functional
MCF7 = test: Cytotoxicity against human MCF7 cells assessed as reduction in cell viability incubated for 96 hrs by MTT method; type: functional, cell-based; conditions: MCF7, 96 h
MDA-MB-231 [23] = test: Induction of mitochondrial depolarization in human MDA-MB-231 cells assessed as monomers at 1 uM in dark by JC10 staining based fluorescence microscopy (reference value: 5.6%); type: functional
[24] = Toxicity in NOD/SCID mouse assessed as cytotoxicity in kidney at 10 mg/kg, ip treated for 33 days by H&E staining analysis; type: organism-based; conditions: in vivo, 792 h, time 33 day
MDA-MB-231 [25] = test: Induction of apoptosis in human MDA-MB-231 cells assessed as decrease in Bcl2/Bax ratio at 1 to 5 uM measured after 24 hrs by Western blot analysis; type: functional, cell-based; conditions: dose 1-5 µM
MDA-MB-231 [26] = test: Antiinvasive activity against in human MDA-MB-231 cells assessed as reduction in MMP2 expression measured upto 72 hrs by Western blot analysis; type: functional, cell-based; conditions: dose 0.1-0.2 µM, time hrs <=72
[27] = Toxicity in NOD/SCID mouse assessed as cytotoxicity in liver at 10 mg/kg, ip treated for 33 days by H&E staining analysis; type: organism-based; conditions: in vivo, 792 h, time 33 day
MDA-MB-231 [28] = test: Antitumor activity against human MDA-MB-231 cells xenografted in NOD/SCID mouse assessed as decrease in Ki67 expression in tumor tissue at 5 to 10 mg/kg, ip treated for 33 days by immunohistochemical analysis; type: functional, organism-based; conditions: dose 5-10 mg/kg, time 33.0 day
MDA-MB-231 [29] = test: Antiinvasive activity against in human MDA-MB-231 cells measured at 0.2 uM upto 72 hrs by transwell invasion assay relative to control; type: functional; conditions: MDA-MB-231, 72 h, time hrs <=72
MDA-MB-468 [30] = test: Effect on Akt expression in human MDA-MB-468 cells measured at 1 to 5 uM after 24 hrs by Western blot analysis; type: functional, cell-based; conditions: dose 1-5 µM
MDA-MB-231 [31] = test: Induction of apoptosis in human MDA-MB-231 cells assessed as increase in cleaved PARP at 1 to 5 uM measured after 24 hrs by Western blot analysis; type: functional, cell-based; conditions: dose 1-5 µM
MDA-MB-231 [32] = test: Induction of autophagy in human MDA-MB-231 cells assessed as increase in ATG5 expression at 1 to 5 uM incubated for 24 hrs by Western blot analysis; type: functional, cell-based; conditions: dose 1-5 µM
MDA-MB-231 [33] = test: Antiinvasive activity against in human MDA-MB-231 cells assessed as reduction in MMP9 expression measured upto 72 hrs by Western blot analysis; type: functional, cell-based; conditions: dose 0.1-0.2 µM, time hrs <=72
MDA-MB-468 [34] = test: Antitumor activity against human MDA-MB-468 cells xenografted in NOD/SCID mouse assessed as increase in LC3B expression in tumor tissue at 5 to 10 mg/kg, ip treated for 33 days by immunohistochemical analysis; type: functional, organism-based; conditions: dose 5-10 mg/kg, time 33.0 day

C=C1C(=O)C2=C[C@H]1CCC(=O)[C@]1(C)[C@H](O)CCC(C)(C)[C@H]1C[C@H]2O
Activity (MDA-MB-468 [1]): Active | Activity (MDA-MB-231 [2]): inactive | Activity [3]: Non-Toxic | Activity (MDA-MB-468 [4]): 29.7% | Activity (MDA-MB-231 [5]): 28% | inhibition in vivo at 10 mg/kg (MDA-MB-468 [6]): 44.8% | Activity (MDA-MB-231 [7]): inactive | Activity (MDA-MB-468 [8]): 25.9% | Activity (MDA-MB-468 [9]): 27.6% | IC50 (MDA-MB-231 [10]): 78.3 nM | Activity (MDA-MB-231 [11]): 81.1% | Activity (MDA-MB-231 [12]): Active | Activity (MDA-MB-231 [13]): inactive | Activity (MDA-MB-231 [14]): 76.2% | Activity (MDA-MB-468 [15]): 58.1% | Activity (MDA-MB-468 [16]): Active | Activity (MDA-MB-468 [17]): 24.3% | Activity (MDA-MB-231 [18]): 8.05% | IC50 (L02): > 5000 nM | Activity (MDA-MB-231 [19]): 31.7% | inhibition (MDA-MB-468 [20]): Active | Activity (MDA-MB-231 [21]): Active | Activity (MDA-MB-468 [22]): 78.5% | IC50 (MCF7): 113 nM | Activity (MDA-MB-231 [23]): 18.9% | Activity [24]: Non-Toxic | Activity (MDA-MB-231 [25]): Active | Activity (MDA-MB-231 [26]): Active | Activity [27]: Non-Toxic | Activity (MDA-MB-231 [28]): Active | inhibition at 0.2 µM (MDA-MB-231 [29]): 80% | Activity (MDA-MB-468 [30]): inactive | Activity (MDA-MB-231 [31]): Active | Activity (MDA-MB-231 [32]): Active | Activity (MDA-MB-231 [33]): Active | Activity (MDA-MB-468 [34]): Active
